Measurements reported in patent US20230085307A1, “PYRIDAZINONE COMPOUND AND HERBICIDE” (NISSAN CHEMICAL CORPORATION, priority 2019, published 2023).

Experiments:
late watergrass = assay: Test Example 1: herbicidal activity, application before weed generation under submerged conditions (Table 16, symbol A); assay type: in vivo, late watergrass (Echinochloa oryzicola)
Summary of the method: (§1)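 Emulsion formulation, water-diluted to set dose, was put onto the flooded surface (4 cm depth, alluvial soil) the same day weeds were sown and 2.5-leaf rice transplanted. After 3 weeks at 25-30 °C under glass, each species was rated 0 (≤5% kill) to 5 (≥90% kill).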

oval-leafed pondweed = assay: Test Example 1: herbicidal activity, application before weed generation under submerged conditions (Table 16, symbol C); assay type: in vivo, oval-leafed pondweed (Monochoria vaginalis)
Summary of the method: as §1

barnyard grass [1] = assay: Test Example 3: herbicidal effect by foliage application, Wagner pot (Table 18, symbol H); assay type: in vivo, barnyard grass (Echinochloa crus-galli)
Summary of the method: (§2)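 Plants were sown in alluvial soil held under 0.1–0.5 cm standing water and grown 14 days in a greenhouse at 25–30 °C. An emulsifiable formulation, water-diluted to the set dose, was then sprayed onto the foliage, and effects were scored three weeks later using previously defined criteria.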

Chinese sprangletop = assay: Test Example 3: herbicidal effect by foliage application, Wagner pot (Table 18, symbol D); assay type: in vivo, chinese sprangletop (Leptochloa chinensis)
Summary of the method: as §2

barnyard grass [2] = assay: Test Example 4: herbicidal effect by soil treatment (Table 19, symbol H); assay type: in vivo, barnyard grass (Echinochloa crus-galli)
Summary of the method: (§3)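 Pre-emergence style soil spray: seeds under ~1.5 cm sterilized diluvial soil received a uniform coat of emulsion diluted to the predetermined herbicide amount. Greenhouse 25–30° C; readout at week three on previously defined criteria.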

Italian ryegrass [3] = assay: Test Example 4: herbicidal effect by soil treatment (Table 19, symbol K); assay type: in vivo, Italian ryegrass (Lolium multiflorum)
Summary of the method: as §3

windgrass [4] = assay: Test Example 4: herbicidal effect by soil treatment (Table 19, symbol L); assay type: in vivo, windgrass (Apera spica-venti)
Summary of the method: as §3

lambsquarters [5] = assay: Test Example 4: herbicidal effect by soil treatment (Table 19, symbol O); assay type: in vivo, lambsquarters (Chenopodium album)
Summary of the method: as §3

false cleavers [6] = assay: Test Example 4: herbicidal effect by soil treatment (Table 19, symbol Q); assay type: in vivo, false cleavers (Galium spurium)
Summary of the method: as §3

persian speedwell [7] = assay: Test Example 4: herbicidal effect by soil treatment (Table 19, symbol R); assay type: in vivo, Persian speedwell (Veronica persica)
Summary of the method: as §3

southern crabgrass = assay: Test Example 5: herbicidal effect by foliage application, plastic box (Table 20, symbol F); assay type: in vivo, southern crabgrass (Digitaria ciliaris); settings: foliage application, three weeks after application
Summary of the method: (§4)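 Plants were sown into sterilized diluvial soil under about 1.5 cm cover and kept in a greenhouse at 25° C. to 30° C. Fourteen days on, foliage received an even spray of the diluted emulsion. Herbicidal or crop effect was judged three weeks afterwards.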

green foxtail = assay: Test Example 5: herbicidal effect by foliage application, plastic box (Table 20, symbol G); assay type: in vivo, green foxtail (Setaria viridis); settings: foliage application, three weeks after application
Summary of the method: as §4

Italian ryegrass [8] = assay: Test Example 5: herbicidal effect by foliage application, plastic box (Table 20, symbol K); assay type: in vivo, Italian ryegrass (Lolium multiflorum); settings: foliage application, three weeks after application
Summary of the method: as §4

windgrass [9] = assay: Test Example 5: herbicidal effect by foliage application, plastic box (Table 20, symbol L); assay type: in vivo, windgrass (Apera spica-venti); settings: foliage application, three weeks after application
Summary of the method: as §4

velvetleaf = assay: Test Example 5: herbicidal effect by foliage application, plastic box (Table 20, symbol M); assay type: in vivo, velvetleaf (Abutilon theophrasti); settings: foliage application, three weeks after application
Summary of the method: as §4

lambsquarters [10] = assay: Test Example 5: herbicidal effect by foliage application, plastic box (Table 20, symbol O); assay type: in vivo, lambsquarters (Chenopodium album); settings: foliage application, three weeks after application
Summary of the method: as §4

false cleavers [11] = assay: Test Example 5: herbicidal effect by foliage application, plastic box (Table 20, symbol Q); assay type: in vivo, false cleavers (Galium spurium); settings: foliage application, three weeks after application
Summary of the method: as §4

persian speedwell [12] = assay: Test Example 5: herbicidal effect by foliage application, plastic box (Table 20, symbol R); assay type: in vivo, Persian speedwell (Veronica persica); settings: foliage application, three weeks after application
Summary of the method: as §4

[13] = amount of applied herbicide 320 g/ha
[14] = amount of applied herbicide 224 g/ha
[15] = amount of applied herbicide 304 g/ha

## CCCC(=O)Oc1c(C)nn(C)c(=O)c1-c1c(-c2ccccc2OCC)sc2cc(F)ccc12 [3-007]
Late watergrass; [13]
  Herbicidal effect, A: late watergrass: 5 (Herbicidal rate of 90% or more (almost completely withered))
oval-leafed pondweed; [13]
  Herbicidal effect, C: oval-leafed pondweed: 4 (Herbicidal rate of 70% or more and less than 90%)
Barnyard grass [1]; [13]
  herbicidal effect on H: barnyard grass: 5 (Herbicidal rate of 90% or more (almost completely withered))
Chinese sprangletop; [13]
  herbicidal effect on D: Chinese sprangletop: 5 (Herbicidal rate of 90% or more (almost completely withered))
Barnyard grass [2]; [13]
  herbicidal effect, H: barnyard grass: 0 (Herbicidal rate of 5% or less (almost no effect))
Italian ryegrass [3]; [13]
  herbicidal effect, K: Italian ryegrass: 4 (Herbicidal rate of 70% or more and less than 90%)
Windgrass [4]; [13]
  herbicidal effect, L: windgrass: 5 (Herbicidal rate of 90% or more (almost completely withered))
Lambsquarters [5]; [13]
  herbicidal effect, O: lambsquarters: 0 (Herbicidal rate of 5% or less (almost no effect))
False cleavers [6]; [13]
  herbicidal effect, Q: false cleavers: 5 (Herbicidal rate of 90% or more (almost completely withered))
Persian speedwell [7]; [13]
  herbicidal effect, R: persian speedwell: 4 (Herbicidal rate of 70% or more and less than 90%)
Southern crabgrass; 320 g/ha
  F: southern crabgrass, herbicidal effect grade: 5 (Herbicidal rate of 90% or more (almost completely withered))
Green foxtail; 320 g/ha
  G: green foxtail, herbicidal effect grade: 5 (Herbicidal rate of 90% or more (almost completely withered))
Italian ryegrass [8]; 320 g/ha
  K: Italian ryegrass, herbicidal effect grade: 5 (Herbicidal rate of 90% or more (almost completely withered))
Windgrass [9]; 320 g/ha
  L: windgrass, herbicidal effect grade: 5 (Herbicidal rate of 90% or more (almost completely withered))
velvetleaf; 320 g/ha
  M: velvetleaf, herbicidal effect grade: 5 (Herbicidal rate of 90% or more (almost completely withered))
Lambsquarters [10]; 320 g/ha
  O: lambsquarters, herbicidal effect grade: 5 (Herbicidal rate of 90% or more (almost completely withered))
False cleavers [11]; 320 g/ha
  Q: false cleavers, herbicidal effect grade: 5 (Herbicidal rate of 90% or more (almost completely withered))
Persian speedwell [12]; 320 g/ha
  R: persian speedwell, herbicidal effect grade: 5 (Herbicidal rate of 90% or more (almost completely withered))

## CCCC(=O)Oc1c(C)nn(C)c(=O)c1-c1c(-c2ccccc2OC)sc2cc(C)ccc12 [3-050]
Late watergrass; [14]
  Herbicidal effect, A: late watergrass: 2 (Herbicidal rate of 20% or more and less than 40%)
oval-leafed pondweed; [14]
  Herbicidal effect, C: oval-leafed pondweed: 1 (Herbicidal rate of 5% or more and less than 20%)
Barnyard grass [1]; 224 g/ha
  herbicidal effect on barnyard grass (H): 4 (Herbicidal rate of 70% or more and less than 90%)
Chinese sprangletop; 224 g/ha
  herbicidal effect on Chinese sprangletop (D): 3 (Herbicidal rate of 40% or more and less than 70%)
Barnyard grass [2]; [14]
  H: barnyard grass, herbicidal effect grade: 0 (Herbicidal rate of 5% or less (almost no effect))
Italian ryegrass [3]; [14]
  K: Italian ryegrass, herbicidal effect grade: 1 (Herbicidal rate of 5% or more and less than 20%)
Windgrass [4]; [14]
  L: windgrass, herbicidal effect grade: 2 (Herbicidal rate of 20% or more and less than 40%)
Lambsquarters [5]; [14]
  O: lambsquarters, herbicidal effect grade: 0 (Herbicidal rate of 5% or less (almost no effect))
False cleavers [6]; [14]
  Q: false cleavers, herbicidal effect grade: 0 (Herbicidal rate of 5% or less (almost no effect))
Persian speedwell [7]; [14]
  R: persian speedwell, herbicidal effect grade: 1 (Herbicidal rate of 5% or more and less than 20%)
Southern crabgrass; 224 g/ha
  F: southern crabgrass, herbicidal effect grade: 4 (Herbicidal rate of 70% or more and less than 90%)
Green foxtail; 224 g/ha
  G: green foxtail, herbicidal effect grade: 3 (Herbicidal rate of 40% or more and less than 70%)
Italian ryegrass [8]; 224 g/ha
  K: Italian ryegrass, herbicidal effect grade: 4 (Herbicidal rate of 70% or more and less than 90%)
Windgrass [9]; 224 g/ha
  L: windgrass, herbicidal effect grade: 4 (Herbicidal rate of 70% or more and less than 90%)
velvetleaf; 224 g/ha
  M: velvetleaf, herbicidal effect grade: 4 (Herbicidal rate of 70% or more and less than 90%)
Lambsquarters [10]; 224 g/ha
  O: lambsquarters, herbicidal effect grade: 0 (Herbicidal rate of 5% or less (almost no effect))
False cleavers [11]; 224 g/ha
  Q: false cleavers, herbicidal effect grade: 4 (Herbicidal rate of 70% or more and less than 90%)
Persian speedwell [12]; 224 g/ha
  R: persian speedwell, herbicidal effect grade: 5 (Herbicidal rate of 90% or more (almost completely withered))

## CCCC(=O)Oc1c(C)nn(C)c(=O)c1-c1c(-c2ccccc2OCC)sc2cc(C)ccc12 [3-054]
Late watergrass; [15]
  Herbicidal effect, A: late watergrass: 5 (Herbicidal rate of 90% or more (almost completely withered))
oval-leafed pondweed; [15]
  Herbicidal effect, C: oval-leafed pondweed: 4 (Herbicidal rate of 70% or more and less than 90%)
Barnyard grass [1]; 304 g/ha
  herbicidal effect on barnyard grass (H): 5 (Herbicidal rate of 90% or more (almost completely withered))
Chinese sprangletop; 304 g/ha
  herbicidal effect on Chinese sprangletop (D): 3 (Herbicidal rate of 40% or more and less than 70%)
Barnyard grass [2]; [15]
  H: barnyard grass, herbicidal effect grade: 0 (Herbicidal rate of 5% or less (almost no effect))
Italian ryegrass [3]; [15]
  K: Italian ryegrass, herbicidal effect grade: 3 (Herbicidal rate of 40% or more and less than 70%)
Windgrass [4]; [15]
  L: windgrass, herbicidal effect grade: 3 (Herbicidal rate of 40% or more and less than 70%)
Lambsquarters [5]; [15]
  O: lambsquarters, herbicidal effect grade: 0 (Herbicidal rate of 5% or less (almost no effect))
False cleavers [6]; [15]
  Q: false cleavers, herbicidal effect grade: 2 (Herbicidal rate of 20% or more and less than 40%)
Persian speedwell [7]; [15]
  R: persian speedwell, herbicidal effect grade: 3 (Herbicidal rate of 40% or more and less than 70%)
Southern crabgrass; 304 g/ha
  F: southern crabgrass, herbicidal effect grade: 5 (Herbicidal rate of 90% or more (almost completely withered))
Green foxtail; 304 g/ha
  G: green foxtail, herbicidal effect grade: 5 (Herbicidal rate of 90% or more (almost completely withered))
Italian ryegrass [8]; 304 g/ha
  K: Italian ryegrass, herbicidal effect grade: 5 (Herbicidal rate of 90% or more (almost completely withered))
Windgrass [9]; 304 g/ha
  L: windgrass, herbicidal effect grade: 4 (Herbicidal rate of 70% or more and less than 90%)
velvetleaf; 304 g/ha
  M: velvetleaf, herbicidal effect grade: 4 (Herbicidal rate of 70% or more and less than 90%)
Lambsquarters [10]; 304 g/ha
  O: lambsquarters, herbicidal effect grade: 4 (Herbicidal rate of 70% or more and less than 90%)
False cleavers [11]; 304 g/ha
  Q: false cleavers, herbicidal effect grade: 5 (Herbicidal rate of 90% or more (almost completely withered))
Persian speedwell [12]; 304 g/ha
  R: persian speedwell, herbicidal effect grade: 5 (Herbicidal rate of 90% or more (almost completely withered))

## COc1cc(F)ccc1-c1sc2cc(C)ccc2c1-c1c(O)c(C)nn(C)c1=O [3-055]
Late watergrass; [13]
  Herbicidal effect, A: late watergrass: 4 (Herbicidal rate of 70% or more and less than 90%)
oval-leafed pondweed; [13]
  Herbicidal effect, C: oval-leafed pondweed: 3 (Herbicidal rate of 40% or more and less than 70%)
Barnyard grass [1]; 320 g/ha
  herbicidal effect on barnyard grass (H): 5 (Herbicidal rate of 90% or more (almost completely withered))
Chinese sprangletop; 320 g/ha
  herbicidal effect on Chinese sprangletop (D): 4 (Herbicidal rate of 70% or more and less than 90%)
Barnyard grass [2]; [13]
  H: barnyard grass, herbicidal effect grade: 0 (Herbicidal rate of 5% or less (almost no effect))
Italian ryegrass [3]; [13]
  K: Italian ryegrass, herbicidal effect grade: 0 (Herbicidal rate of 5% or less (almost no effect))
Windgrass [4]; [13]
  L: windgrass, herbicidal effect grade: 2 (Herbicidal rate of 20% or more and less than 40%)
Lambsquarters [5]; [13]
  O: lambsquarters, herbicidal effect grade: 0 (Herbicidal rate of 5% or less (almost no effect))
False cleavers [6]; [13]
  Q: false cleavers, herbicidal effect grade: 3 (Herbicidal rate of 40% or more and less than 70%)
Persian speedwell [7]; [13]
  R: persian speedwell, herbicidal effect grade: 4 (Herbicidal rate of 70% or more and less than 90%)
Southern crabgrass; 320 g/ha
  F: southern crabgrass, herbicidal effect grade: 5 (Herbicidal rate of 90% or more (almost completely withered))
Green foxtail; 320 g/ha
  G: green foxtail, herbicidal effect grade: 5 (Herbicidal rate of 90% or more (almost completely withered))
Italian ryegrass [8]; 320 g/ha
  K: Italian ryegrass, herbicidal effect grade: 5 (Herbicidal rate of 90% or more (almost completely withered))
Windgrass [9]; 320 g/ha
  L: windgrass, herbicidal effect grade: 5 (Herbicidal rate of 90% or more (almost completely withered))
velvetleaf; 320 g/ha
  M: velvetleaf, herbicidal effect grade: 5 (Herbicidal rate of 90% or more (almost completely withered))
Lambsquarters [10]; 320 g/ha
  O: lambsquarters, herbicidal effect grade: 5 (Herbicidal rate of 90% or more (almost completely withered))
False cleavers [11]; 320 g/ha
  Q: false cleavers, herbicidal effect grade: 4 (Herbicidal rate of 70% or more and less than 90%)
Persian speedwell [12]; 320 g/ha
  R: persian speedwell, herbicidal effect grade: 5 (Herbicidal rate of 90% or more (almost completely withered))
